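Results reflect a 48-hour exposure of cells in 96-well plates to compound at five concentrations. Abbreviation: GI50, concentration required for 50% inhibition of growth.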 The source made the active and inactive calls. Cut-off read from the data, not from the text of the source: active = GI50 up to about 1.1 µM and inactive = higher.
Tests used:
Assay in all cases: inhibition of tumour cell growth, NCI panel, 48 h
SF-295 = test system: SF-295
HCT-15 = test system: HCT-15
UACC-62 = test system: UACC-62
K562 = test system: K562
LOX IMVI = test system: LOX IMVI
HL-60 = test system: HL-60
SNB-19 = test system: SNB-19
KM12 = test system: KM12
TK-10 = test system: TK-10
SF-268 = test system: SF-268
A498 = test system: A498
DLD-1 = test system: DLD-1
SN12C = test system: SN12C
NCI-H522 = test system: NCI-H522
MOLT-4 = test system: MOLT-4
RPMI-8226 = test system: RPMI-8226
OVCAR-3 = test system: OVCAR-3
NCI-H460 = test system: NCI-H460
HOP-62 = test system: HOP-62

SMILES | GI50 (SF-295) | GI50 (HCT-15) [µM] | GI50 (UACC-62) | GI50 (K562) | GI50 (LOX IMVI) | GI50 (HL-60) | GI50 (SNB-19) | GI50 (KM12) | GI50 (TK-10) | GI50 (SF-268) | GI50 (A498) | GI50 (DLD-1) | GI50 (SN12C) | GI50 (NCI-H522) | GI50 (MOLT-4) | GI50 (RPMI-8226) | GI50 (OVCAR-3) | GI50 (NCI-H460) | GI50 (HOP-62)
O=c1c2ccccc2c(=O)n2n1CC=CC2 | > 100 µM (inactive) | > 100 | > 100 µM (inactive) | > 100 µM (inactive) | > 100 µM (inactive) | > 100 µM (inactive) | > 100 µM (inactive) | > 100 µM (inactive) | > 100 µM (inactive) | > 100 µM (inactive) | > 100 µM (inactive) | > 100 µM (inactive) | > 100 µM (inactive) | > 100 µM (inactive) | > 100 µM (inactive) | > 100 µM (inactive) | > 100 µM (inactive) |  | 
Clc1cccc(C2SCc3nc4ccccc4n32)c1Cl (stereo unspecified) | 16.5 µM (inactive) | 17.4 | 19.7 µM (inactive) | 12.8 µM (inactive) |  | 5.18 µM (inactive) | 18 µM (inactive) |  | 15.6 µM (inactive) | 21 µM (inactive) | 15.2 µM (inactive) | 16.6 µM (inactive) | 16.1 µM (inactive) | 16.6 µM (inactive) | 11.1 µM (inactive) | 13.3 µM (inactive) | 19 µM (inactive) | 18.5 µM (inactive) | 17.4 µM (inactive)
Nc1nc2c3nc(Nc4ccccc4)sc3nc(=O)n2c2sc(Nc3ccccc3)nc12 | > 100 µM (inactive) | > 100 | > 100 µM (inactive) | > 100 µM (inactive) |  | > 100 µM (inactive) | > 100 µM (inactive) |  |  | > 100 µM (inactive) | > 100 µM (inactive) | > 100 µM (inactive) | > 100 µM (inactive) | > 100 µM (inactive) | > 100 µM (inactive) | > 100 µM (inactive) |  |  | > 100 µM (inactive)
C1CCN(c2nc(=[N+]3CCCCC3)ss2)CC1 | > 100 µM (inactive) | > 100 | > 100 µM (inactive) | 90.6 µM (inactive) | 41.1 µM (inactive) | > 100 µM (inactive) | > 100 µM (inactive) | 9.18 µM (inactive) | > 100 µM (inactive) | 82 µM (inactive) | > 100 µM (inactive) | > 100 µM (inactive) | > 100 µM (inactive) | > 100 µM (inactive) | > 100 µM (inactive) | > 100 µM (inactive) |  | 48.8 µM (inactive) | > 100 µM (inactive)
CCCCCCC(C)CCCCCCCCCCC(=O)O (stereo unspecified) | > 100 µM (inactive) |  | > 100 µM (inactive) | > 100 µM (inactive) | > 100 µM (inactive) | > 100 µM (inactive) | > 100 µM (inactive) | 64.7 µM (inactive) | > 100 µM (inactive) | > 100 µM (inactive) | > 100 µM (inactive) | > 100 µM (inactive) | > 100 µM (inactive) | > 100 µM (inactive) | > 100 µM (inactive) | > 100 µM (inactive) | > 100 µM (inactive) | > 100 µM (inactive) | > 100 µM (inactive)
Cc1ccccc1NC(=O)CC1C(=O)Nc2ccccc2[S+]1[O-] (stereo unspecified) | > 100 µM (inactive) | > 100 | > 100 µM (inactive) | > 100 µM (inactive) | > 100 µM (inactive) | > 100 µM (inactive) | > 100 µM (inactive) |  | > 100 µM (inactive) | > 100 µM (inactive) | > 100 µM (inactive) | > 100 µM (inactive) | 74 µM (inactive) | > 100 µM (inactive) | > 100 µM (inactive) | > 100 µM (inactive) | > 100 µM (inactive) | > 100 µM (inactive) | 
